{"source": "patent US11602551B2", "about": "“Use of inosine for the treatment of t-reg deficiency” (BioGaia AB, priority 2016, dated 2023)", "tested_on": "Splenic lymphocytes", "experiment": "Lymphocyte proliferation test (XTT)", "type": "cell-based, mice", "procedure": "Splenic lymphocytes were split into 96-well plates at an initial density of 2×10^4 cells per well and were incubated with different doses of inosine under control, 40 μg/ml of LPS or 10 μg/ml of PHA condition, respectively. After 96 h, cell viability was measured by TACS XTT cell proliferation assay kit (Trevigen, Inc. Gaithersburg, Md.)."}
{"molecule": "O=c1[nH]cnc2c1ncn2[C@@H]1O[C@H](CO)[C@@H](O)[C@H]1O", "note": "[inosine]", "values": [{"measurement": "proliferation of PHA-stimulated T-lymphocytes", "setting": "96 h treatment, 10 μg/ml of PHA", "value": "does not inhibit"}, {"measurement": "proliferation of LPS-stimulated B-lymphocytes", "setting": "96 h treatment, 40 μg/ml of LPS", "value": "does not inhibit"}, {"measurement": "proliferation of lymphocytes in vitro", "setting": "different doses of inosine, 96 h", "value": "did not inhibit"}]}
